# System: Maize
# Test: Crop application - vegetative growth (maize): spray application, damage to the plants
# Assay type: in vivo
# Source text: When using MAP technical, it is only possible to spray a maximum of 1 kg P per ha before damage is inflicted on the plants.
smiles,measurement,value
"N.O=P(O)(O)O [MAP technical, monoammonium phosphate (technical)]",maximum that can be sprayed before damage is inflicted on the plants,≤ 1 kg P per ha
